Laboratory results reported in patent US20240216547A1, “USE OF FLUORESCEIN DICARBONATE DERIVATIVES AS A CELL MARKER” (UNIVERSITE JEAN MONNET SAINT ETIENNE, priority 2021, published 2024).

Experiments:
Format in all cases: cell-based
[1] = Cytotoxicity by LDH release (CyQUANT LDH Cytotoxicity Assay); conditions: human, HCE-2, 4 μM, 45 min contact, read-out: cytotoxicity (% of dead cells, LDH)
Protocol: The cytotoxicity of a solution of compound 1 in Cremophor® EL [CAS 61791-12-6](molar ratio 1/1), designated under the reference F4267, compared to that of calcein-AM, was evaluated on the human corneal epithelium cell line immortalized by SV40, HCE-2 (ATCC CRL-11135) using two solutions of F4267 of concentrations [40 μM] and [1000 μM] or calcein-AM (FP-F19820, Interchim) [4 μM] diluted in optiMEM (11058021, Gibco, ThermoFisher) and deposited for 45 minutes on the cells (100 μL per well seeded 24 hours previously at 1.10^5 cells/mL [3788, Corning, surface: 0.32 cm^2]. After 45 minutes of contact with compound 1 or with calcein-AM, the cells were rinsed with their culture medium, then returned to culture in an oven with 5% CO2, at 37° C. Cytotoxicity was measured by dosing lactate dehydrogenases (LDH) released into the supernatant using the CyQUANT LDH Cytotoxicity Assay kit (C20301, ThermoFisher, see cytotoxicity test below) and expressed as % of dead cells using an internal standard. Cytotoxicity was evaluated 45 minutes (before rinsing), 24 h and 48 h after the start of incubation (3 wells per condition, n=1 experiments).
Lactate DeHydrogenases (LDH) are a family of ubiquitous cytosolic enzymes present in almost all cell types. Membrane damage causes a release of LDH into the external environment. There is a direct correlation between cellular cytotoxicity which causes membrane damage and the amount of LDH present in the extracellular environment. […]
The cytotoxicity test was carried out with tetrazolium salt (INT) which is converted into formazan. […] The concentration of formazan being proportional to the amount of LDH present in the medium, this was quantified by an absorbance reading at 555 nm, against a blank measurement at 650 nm to eliminate the parasitic absorbance of the medium. The percentage of dead cells is then calculated from the formula below, with the maximum LDH activity being that of a well from which all cells have been lysed, and the basal LDH activity, that of a non-treated well.

[2] = test system: normal human fetal lung fibroblasts HEL299; test: Quality of cytoplasmic marking on adherent cells; conditions: HEL299, 4 μM, FITC filter, macroscope
Protocol: The quality of cytoplasmic marking by compound 1 on cells was evaluated on the adherent line of normal human fetal lung fibroblasts HEL299 [ATCC CCL-137], because they form a cellular monolayer (a single thickness facilitating the evaluation of cellular morphology and enumeration). Cells were seeded at 1.10^5 cells/mL 72 h before marking, then marked with the solution of compound 1 designated by the reference F4267 at [4 μM] and [40 μM] or with a solution of Calcein-AM [4 μM], then observed in a sterile Petri dish under the FITC filter of a macroscope (macro-zoom microscope, MVX10, Olympus, Tokyo, Japan) (2 wells per condition, n=1 experiments).

[3] = test system: corneal endothelium; test: Quality of cytoplasmic marking on corneal endothelium; conditions: human corneal endothelium, 4 μM, 45 min
Protocol: The quality of cytoplasmic marking by compound 1 (solution F4267) on corneal endothelium was compared to that of Calcein-AM by staining paired corneas. The endothelial surface of the corneas was incubated for 45 minutes either with the F4267 solution (40 μM on the left eye, LE) or with Calcein-AM (4 μM on the right eye, RE) following a validated staining protocol. (Invest Ophthalmol Vis Sci. 2011, 52 (8), 6018-6025, Pipparelli and al.) (n=2 pairs of corneas).

[4] = test system: HCEC-B4G12 corneal endothelial cells; test: Impact of repeated cell marking on cell viability; conditions: B4G12, 4 μM, daily marking 45 min, with or without PBS rinsing, D5
Protocol: The experiment is carried out with HCEC-B4G12 corneal endothelial cells (CVCL_2065). The cells are thawed and cultured in their culture medium. The cells are trypsinized once a week before being seeded in wells of 24-well slides at a concentration of 1.10^5 cells/mL. The cells are then incubated for 5 days at 37° C., 5% CO2 until 90% confluence.
The different wells are stained daily with Calcein-AM (4 μM) or product F4267 (40 μM), according to the following conditions: marking for 45 minutes, then rinsing with PBS or marking for 45 minutes without rinsing. The marking and possibly rinsing step is repeated every day for 4 successive days, then after 2 days without marking, the marking is repeated again for 2 consecutive days.
The marking steps are carried out in duplicate. Afterwards, each marking, a well for each of the conditions is observed by epifluorescence microscopy (Olympus IX81 Microscope, FITC channel, ×4 objective, L: 25, Texp: 142.7 ms), while the second well (control) is kept in the darkness in order to evaluate the impact of fluorescence observation at the end of the study. On the last day of the study, the marking is carried out with calecin-AM (4 μM) in the presence of Hoescht ( 1/500) or the product F4267 (40 μM) in the presence of Hoescht ( 1/500), and the wells are imaged in MIA×4 (reconstruction of several fields to obtain a complete image of the well). […]

CC(=O)OCOC(=O)CN(CC(=O)OCOC(C)=O)Cc1c(OC(C)=O)ccc2c1Oc1c(ccc(OC(C)=O)c1CN(CC(=O)OCOC(C)=O)CC(=O)OCOC(C)=O)C21OC(=O)c2ccccc21 [Calcein-AM]
cytotoxicity at 45 min, 4 µM ([1]; measured at 45 min): 0.6 ± 0.5% | cytotoxicity at 24 h, 4 µM ([1]; measured at 24 h): 26.4 ± 14.1% | cytotoxicity at 48 h, 4 µM ([1]; measured at 48 h): 18.8 ± 11.1% | quality of cytoplasmic marking [2]: visualize the cell cytoplasms in a similar way | marking differentiating dead cells from living cells [3]: marking differentiating dead cells from living cells | cell layer after repeated marking [4]: less dense | cell layer after repeated marking ([4]; listed as calcein-AM): absence of cell layer
